Patent publication US8957087B2, “Heterocyclic substituted acardite derivate and application thereof” (Jiangsu Provincial Institute of Materia Medica Co., Ltd., priority 2009, dated 2015)
Values joined by “and” are separate entries in the source; they are usually repeats but may differ in a detail not shown here. Identical values can stand only once. Like-named read-outs stand apart in the source and are kept apart here. Marks after values point to notes of the source that are not given here.

How the values were obtained:
mice S180 sarcoma = assay: Experimental therapeutic action on S180 sarcoma mice; conditions: for Tumor growth inhibition rate (%): mice S180 sarcoma, 60 mg/kg orally for 9 days
Raf-1(truncated) = assay: Raf-1 inhibitor screening by chemoluminescence method; assay type: biochemical; conditions: Final concentration 1 x 1.0*10^−5 mol/ml
From the text: 1. Inhibitory activity of the compound of the present invention on raf kinase
Raf-1 inhibitor screening by chemoluminescence method
Westernblot electrophoresis apparatus Rotaryshaker
Raf-1(truncated), Magnesium/ATP Cocktail, MEK1 unactive

lung cancer cell A549 = assay: Effects on the adhesive ability of lung cancer cell A549; assay type: cell-based, human; conditions: Final concentration 1 x 1.0*10^(−5) mol/L
Summary of the method: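 A549 cells in 1640 medium with 10% FBS tested for adhesion to gelatin versus poly-lysine (PLL), with CCK8 used as read-out. Inhibition rate derived from the gelatin/PLL adhesion OD ratio of dosed cells relative to the undosed cell group.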

[1] = system: human umbilical vein endothelial cell HUVEC; assay: Growth of human umbilical vein endothelial cell HUVEC by CCK8 method; assay type: cell-based; conditions: Final concentration 1 x 1.0*10^(−5) mol/L
Summary of the method: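 HUVEC cells were grown in 1640 medium with 10% FBS, and growth was measured by the CCK8 method. OD values of drug and control wells were corrected by subtracting the blank-well OD.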

[2] = system: Human colon cancer HT-29 transplantable tumor; assay: Human colon cancer HT-29 transplantable tumor in nude mice; conditions: for Relative tumor reproduction rate T/C (%): HT-29 in nude mice
Experimental: Experimental therapeutic action of the compound in the present invention on Human colon cancer HT-29 transplantable tumor in nude mice.
Take eugenic tumor tissues and cut into about 1.5 mm^3, and then incoculate subcutaneously at the right armpit of nude mice under the sterile conditions. The diameter of the transplantable tumor in nude mice was determined with a vernier caliper, and the animals were divided into groups after the tumors were grown to 100-300 mm^3. Using the method of measuring the tumor diameter, dynamically observe the antitumor effects of tested materials. The diameter of the tumor was determined three times every week and the mouse weight was weighed at the same time. […] The solvent was intragastrically administrated as the control for continuous 9 times. Equal amount of control was administrated in the negative control group.
Tumor volume (TV) is calculated as: TV=½×a×b^2, wherein a and b respectively represent length and width.
Relative tumor volume (RTV) is calculated as: RTV=TVt/TV0, wherein TV0 is the tumor volume when administrated according to different cages and TVt is the tumor volume measured each time.
Relative tumor reproduction rate T/C (%) is calculated as follows:
TRTV: RTV in the treatment group; CRTV: RTV in the negative control group.
The test results used relative tumor reproduction rate T/C (%) as evaluating indicator of anti-tumor activity.

[3] = system: human liver cancer cell bel-7402 transplantation tumor; assay type: in vivo; conditions: BALB/cA nude mice; 60 mg/kg, 6 times every week for 3 weeks; Sorafenib oral 60 mg/kg
Summary of the method: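 Female BALB/cA nude mice (35–40 days, 18–22 g) bearing Bel-7402 xenografts; 6 mice per treated group, 12 in saline controls. Compound dosed at 60 mg/kg, 6 times weekly for 3 weeks, followed by one week of observation; tumor inhibition rate scored against controls.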

[4] = system: human umbilical vein endothelial cell HUVEC; assay: Lumen formation ability of HUVEC (Matrigel method); assay type: cell-based; conditions: Final concentration 1 x 1.0*10^(−5) mol/L
Summary of the method: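 HUVEC at passage 3–5, cultured in M199 at 37° C under 5% CO2, were plated on Matrigel with compound. Spontaneous lumen formation was scored as an inhibition rate.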

[5] = system: human lung cancer A549 transplantation tumor; assay type: in vivo; conditions: BALB/cA nude mice; 60 mg/kg, 6 times every week for 3 weeks; Sorafenib oral 60 mg/kg
Summary of the method: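 Female BALB/cA nude mice, 35-40 days old, bearing A549 human lung cancer transplants; 6 per treatment group, 12 saline controls. Compound given at 60 mg/kg, 6 times weekly for 3 weeks, then observed one week.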

[6] = system: human lung cancer cell strain A549; assay: MTT assay, inhibition of growth of human lung cancer cell strain A549; assay type: cell-based
Summary of the method: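 A549 cells grown in F12 with 10% FBS; growth read by MTT, inhibition rate from blank-corrected OD of drug wells versus control wells.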

[7] = system: human high-metastic lung cancer cell 95D; assay: Inhibition of human high-metastic lung cancer cell 95D migration (Boyden Chamber Transwell); assay type: cell-based; conditions: Final concentration 1 x 1.0*10^(−5) mol/L
Summary of the method: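 Boyden Transwell migration (8 μm pores) of 95D cells, RPMI-1640 with 10% FBS versus serum-free medium; inhibition rate calculated.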

[8] = system: renal carcinoma cell line GCR-1 transplanted tumor; assay type: in vivo, BALB/cA nude mice; conditions: BALB/cA nude mice; 60 mg/kg, 6 times every week for 3 weeks; Sorafenib oral 60 mg/kg
Summary of the method: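 Female BALB/cA nude mice (18–22 g) bearing GCR-1 renal carcinoma xenografts, 6 per treated group, 12 saline controls. Drug given at 60 mg/kg, 6 times weekly for 3 weeks, then one week of observation; tumor inhibition rate reported.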

[9] = Final concentration 1 x 1.0*10^(−5) mol/L

Compound: CNC(=O)c1cc(Oc2ccc(NC(=O)Nc3ccc(F)c(C(F)(F)F)c3)cc2)c2cc(OC)ccc2n1 [Compound 2]
- Tumor weight x ± SD (mice S180 sarcoma; 60 mg/kg ig for 9 days, day 10): 0.87 ± 0.24 g
- Tumor growth inhibition rate (%) (mice S180 sarcoma; 60 mg/kg): 46.0% and 24.1%
- Weight (g) Start (mice S180 sarcoma; mouse body weight at start, 60 mg/kg ig): 18.9 ± 1.7 g
- Weight (g) Final (mice S180 sarcoma; mouse body weight final, 60 mg/kg ig for 9 days): 20.9 ± 2.3 g
- Inhibition rate % on raf kinase (Raf-1(truncated)): 61.1%
- Inhibition rate, adhesion ability of human lung cancer cell A549 (lung cancer cell A549): 75.15%
- Inhibition rate, growth of HUVEC cell [1]: 13.11%
- Relative tumor reproduction rate T/C (%) ([2]; 60 mg/kg ig 9 times, 60 mg/kg): 39.45%
- Weight (g) d0 ([2]; nude mouse body weight d0, 60 mg/kg): 19.9 ± 0.8 g
- Weight (g) d13 ([2]; nude mouse body weight d13, 60 mg/kg ig 9 times): 21.0 ± 0.8 g
- RTV ([2]; relative tumor volume, 60 mg/kg ig 9 times): 2.00 ± 0.41
- TV d0 ([2]; tumor volume d0, 60 mg/kg): 133 ± 23
- TV d13 ([2]; tumor volume d13, 60 mg/kg ig 9 times): 265 ± 100
- Relative tumor reproduction rate T/C (%) on human liver cancer cell bel-7402 transplantation tumor model in nude mice [3]: 35.4%
- Inhibition rate, lumen formation ability of HUVEC [4]: 75.14%
- Relative tumor reproduction rate T/C (%) on human lung cancer A549 transplantation tumor in nude mice [5]: 35.3%
- Inhibition rate, growth of human lung cancer cell A549 [6, 9]: 61.11%
- Inhibition rate, 95D cell strain migration [7]: 85.17%
- Relative tumor reproduction rate T/C (%) on human renal carcinoma GCR-1 cell transplanted tumor model in nude mice [8]: 23.2%

Compound: COc1ccc2nccc(Oc3ccc(NC(=O)Nc4ccc(Br)c(C(F)(F)F)c4)cc3)c2c1 [Compound 18]
- Tumor growth inhibition rate (%) (mice S180 sarcoma): 35.7%
- Inhibition rate % on raf kinase (Raf-1(truncated)): 34.4%
- Inhibition rate, adhesion ability of human lung cancer cell A549 (lung cancer cell A549): 93.72%
- Inhibition rate, growth of HUVEC cell [1]: 5.71%
- Relative tumor reproduction rate T/C (%) ([2]; 60 mg/kg ig 9 times): 40.2%
- Relative tumor reproduction rate T/C (%) on human liver cancer cell bel-7402 transplantation tumor model in nude mice [3]: 12.7%
- Inhibition rate, lumen formation ability of HUVEC [4]: 63.71%
- Relative tumor reproduction rate T/C (%) on human lung cancer A549 transplantation tumor in nude mice [5]: 12.5%
- Inhibition rate, growth of human lung cancer cell A549 [6, 9]: 90.71%
- Inhibition rate, 95D cell strain migration [7]: 93.73%
- Relative tumor reproduction rate T/C (%) on human renal carcinoma GCR-1 cell transplanted tumor model in nude mice [8]: 12.3%

Compound: COc1ncncc1Oc1ccc(NC(=O)Nc2ccc(Cl)c(C(F)(F)F)c2)cc1 [Compound 22, N-(4-chloro-3-(trifluoromethyl)phenyl)-N′-(4-(5-(4-methoxypyrimidinyl)oxy)phenyl)urea]
- Tumor growth inhibition rate (%) (mice S180 sarcoma): 52.1%
- Inhibition rate % on raf kinase (Raf-1(truncated)): 88.1%
- Inhibition rate, adhesion ability of human lung cancer cell A549 (lung cancer cell A549): 72.44%
- Inhibition rate, growth of HUVEC cell [1]: 12.49%
- Relative tumor reproduction rate T/C (%) ([2]; 60 mg/kg ig 9 times): 41.2%
- Relative tumor reproduction rate T/C (%) on human liver cancer cell bel-7402 transplantation tumor model in nude mice [3]: 15.3%
- Inhibition rate, lumen formation ability of HUVEC [4]: 86.72%
- Relative tumor reproduction rate T/C (%) on human lung cancer A549 transplantation tumor in nude mice [5]: 15.3%
- Inhibition rate, growth of human lung cancer cell A549 [6]: 82.49%
- Inhibition rate, 95D cell strain migration [7]: 88.77%
- Relative tumor reproduction rate T/C (%) on human renal carcinoma GCR-1 cell transplanted tumor model in nude mice [8]: 8.1%

Compound: CCc1ccc(NC(=O)Nc2ccc(Oc3ccnc4cc(F)c(C)cc34)cc2)cc1C(F)(F)F [Compound 34, N-(4-ethyl-3-(trifluoromethyl)phenyl)-N′-(4-(4-(6-methyl-7-fluoro-quinolinyl)oxy)phenyl)urea]
- Tumor growth inhibition rate (%) (mice S180 sarcoma): 52.6%
- Inhibition rate % on raf kinase (Raf-1(truncated)): 96.2%
- Inhibition rate, adhesion ability of human lung cancer cell A549 (lung cancer cell A549): 76.54%
- Inhibition rate, growth of HUVEC cell [1]: 19.52%
- Relative tumor reproduction rate T/C (%) ([2]; 60 mg/kg ig 9 times): 45.9%
- Relative tumor reproduction rate T/C (%) on human liver cancer cell bel-7402 transplantation tumor model in nude mice [3]: 31.5%
- Inhibition rate, lumen formation ability of HUVEC [4]: 66.52%
- Relative tumor reproduction rate T/C (%) on human lung cancer A549 transplantation tumor in nude mice [5]: 22.3%
- Inhibition rate, growth of human lung cancer cell A549 [6]: 59.52%
- Inhibition rate, 95D cell strain migration [7]: 63.65%
- Relative tumor reproduction rate T/C (%) on human renal carcinoma GCR-1 cell transplanted tumor model in nude mice [8]: 36.1%
